The assay addresses T1, EP1 receptor (Mus musculus, UniProt P35375).
T1 sequence (P35375 1-405): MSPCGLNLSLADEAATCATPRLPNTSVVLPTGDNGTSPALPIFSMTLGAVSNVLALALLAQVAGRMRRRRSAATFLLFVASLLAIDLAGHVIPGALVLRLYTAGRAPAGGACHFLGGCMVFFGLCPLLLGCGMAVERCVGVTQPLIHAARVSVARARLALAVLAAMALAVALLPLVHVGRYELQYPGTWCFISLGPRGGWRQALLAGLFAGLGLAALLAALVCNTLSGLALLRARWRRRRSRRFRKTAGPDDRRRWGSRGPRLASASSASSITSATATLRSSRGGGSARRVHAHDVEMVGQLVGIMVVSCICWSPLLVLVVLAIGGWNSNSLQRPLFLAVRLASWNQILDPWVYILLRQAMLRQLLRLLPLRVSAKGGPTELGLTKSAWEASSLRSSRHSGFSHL
Put plainly: Fura-2 intracellular Ca2+ dose-response in EP1-HEK cells. The assay is classed as cell-based.

SMILES strings stand for the structures. pEC50: −log10 of the molar value.

The record followed here is paper PMC4186417 (Pharmacology Research & Perspectives, 2014).

For the molecule `CCCCC[C@H](O)/C=C/[C@H]1[C@H](O)CC(=O)[C@@H]1C/C=C\CCCC(=O)O` [PGE2], the pEC50 was 7.89.
